Laboratory results from patent US20200368322A1, “METHODS OF IDENTIFYING AND USING AGENTS FOR TREATING DISEASES ASSOCIATED WITH INTESTINAL BARRIER DYSFUNCTION” (Yeda Research and Development Co. Ltd., priority 2018, published 2020).
Entries after “also recorded” stand apart in the source; their conditions may differ. No end group written: not given here.

How the values were obtained:
[1] = tested on: tight junctions of Caco2 cells; assay: Caco2 tight junction morphology (cingulin or ZO-1 staining, tortuosity); assay type: cell-based, human; settings: Caco2 cells; for tight junction morphology: 10 mM acetyl-proline, 1 mM putrescine, 10 mM histamine, 5 mM spermine; for tight junction disruption phenotype (type 1 zipper-like, type 2 flower-like): known IBD mediators; for tight junctions morphology (cingulin): 50 ng/ml TNFa, 30 ng/ml IL1-b, 100 ng/ml LPS
Experimental: (§1) CaCo-2 cells were purchased from ATCC. Cells were routinely grown in regular tissue culture medium (DMEM, 10% FCS, penicillin/streptomycin, GlutaMAX). For experiments with differing glucose concentrations, cells were routinely cultured in low-glucose DMEM (1 g/l glucose). Cells were seeded onto 96-well glass-bottom plates coated with either fibronectin or collagen 70 000 cells/well and allowed to grow for 24 hours to form confluent monolayer before indicated treatments.
(§2) For high resolution images of manually selected representative fields, a DeltaVision wide field fluorescent microscope (GE Healthcare) equipped with 40×UPlanFLN or 60×/1.42 PlanApo N oil objective (Olympus) was used. For multi-well plate scanning, the following automated imaging stations were used: DeltaVision microscope with plate scanning regiment, Hermes imaging station (IDEA bio-Medical) or ImagExpress microXL imaging station (Molecular Devices) equipped by 40× air objectives. In all cases in order to cover the curvature of apical surface of epithelial monolayer 5 μm thick z-stack was acquired around the tight junction plane (identified by best focus algorithm) and resulting image was generated as a maximum projection of all optical sections.
(§3) Cell images were segmented using Morphological Segmentation ImageJ plug-in and junction tortuosity was calculated as a ratio between junction length and Euclidian distance between its ends.

[2] = tested on: focal adhesions of Caco2 cells; assay: Caco2 cell-matrix focal adhesions (paxillin staining); assay type: cell-based, human; settings: for focal adhesions size: 10 mM acetyl-proline, 1 mM putrescine, 10 mM histamine, 5 mM spermine
Experimental: as §1, §2

Caco2 cells = assay: Traction force microscopy; assay type: cell-based, human; settings: Caco2 islands on polyacrylamide hydrogels, 24 hours treatment
Experimental: SoftTrac 6 well plates with pre-made collagen coated 12 kPa hydrogels containing embedded 0.2 μm fluorescent beads were purchased from Matrigen. 200,000 cells per well were plated and allowed to grow for 24 hours to form epithelial islands, treated with the indicated metabolite for another 24 hours and live-imaged using DeltaVision microscope equipped with environmental chamber. After acquisition of cell and fluorescent bead images in steady state conditions, cells were detached with trypsin and imaging of beads was repeated in a relaxed state. Displacement map generation and force calculations were performed using MatLab script described in Butler et al. Am J Physiol Cell Physiol. 2002.

[3] = tested on: tight junctions of Caco2 cells; assay: Human secreted molecules library screen for tight junction modulators; assay type: cell-based; settings: Caco2, 24 hours; ng/ml: TNFa 50, Il-15 25, CCL-20 50, CCL-23 50, FGF-1 25, FGF-10 100, BMP-10 50, UTS-2 10, UCN-1 20, EPO 10, UCN-3 20, IL-21 30, CCL-3 40, TIMP-2 100, FasLG 10
Experimental: as §1, §3
A protein library, consisting of 295 human secreted proteins was used for identification of potential modulators of the barrier function of human intestinal epithelial cells.

[4] = co-treatment with 20 μM blebbistatin

## N[C@@H](CCO)C(=O)O [L-homoserine]
[1]
  effect on tight junctions in metabolite screen: Stabilization
[1]; 10 mM taurine, 1 mM tryptamine, 10 mM L-homo-serine, in combination with LPS
  tight junction distortion caused by LPS: abolish tight junction distortion caused by LPS treatment alone
[2]; 1 mM tryptamine, 10 mM L-homo-serine
  focal adhesions size vs control non treated cells: reduction in focal adhesions size
[2]; 1 mM tryptamine, 10 mM L-homo-serine, with LPS
  enlargement of focal adhesions caused by LPS: prevent enlargement focal adhesions caused by LPS treatment

## CC(=O)N1CCC[C@H]1C(=O)O [N-acetylproline]
[1]
  effect on tight junctions in metabolite screen: Disruption
  tight junction morphology: distortion of tight junction morphology
[2]
  focal adhesions size: increase of focal adhesions size

## Cc1ccc2c(c1)C(=O)C1(O)CCN(c3ccccc3)C1=N2 (stereo not drawn) [blebbistatin, reference compound]
[1]; [4]
  disruptive effect of LPS and histamine on tight junctions: abolishes disruptive effect of LPS and histamine on tight junctions
[2]; [4]
  focal adhesions enlarged by LPS or histamine: reduction of focal adhesions
Caco2 cells
  forces applied to the substrate (cell contractility): cause cell relaxation

## NCCCNCCCCNCCCN [spermine]
[1]
  effect on tight junctions in metabolite screen: Disruption
  tight junction disruption phenotype (type 1 zipper-like, type 2 flower-like): type 2
  tight junction morphology: distortion of tight junction morphology
[1]; type 2 disruptor plus LPS
  tight junction phenotype in combination with LPS: double effect
[2]
  focal adhesions size: increase of focal adhesions size

## Chemokine ligand 20 [CCL-20]
[3]
  TJ morphology (cingulin) in secreted molecules screen: changes in TJ morphology similar to previously observed upon treatment with known pro-inflammatory mediators

## Fibroblast growth factor 1 [FGF-1]
[3]
  TJ morphology (cingulin) in secreted molecules screen: changes in TJ morphology similar to previously observed upon treatment with known pro-inflammatory mediators

## IL1-b: cytokine, known pro-inflammatory IBD mediator
[1]
  tight junctions morphology (cingulin): significant alteration in tight junctions morphology

## Interleukin-15 [Il-15]
[3]
  TJ morphology (cingulin) in secreted molecules screen: changes in TJ morphology similar to previously observed upon treatment with known pro-inflammatory mediators

## Interleukin-21 [IL-21]
[1]; cingulin
  distortion of tight junctions on co-treatment of stabilizer with disruptor: abolished distortion of tight junctions observed in the treatment with disruptors alone
[1]; N≥200
  TJ tortuosity on co-treatment of disruptor with stabilizer: reduces tortuosity to the level of untreated control
[2]; paxilin
  enlargement of focal adhesions on co-treatment with disruptor: prevents enlargement of focal adhesions caused by treatments with disruptors only
[3]
  TJ morphology (cingulin) in secreted molecules screen: improvement of TJ morphology in comparison to non-treated control

## TNFa
[1]
  tight junction disruption phenotype (type 1 zipper-like, type 2 flower-like): type 1
  tight junctions morphology (cingulin): significant alteration in tight junctions morphology
[3]
  TJ morphology (cingulin) in secreted molecules screen: changes in TJ morphology similar to previously observed upon treatment with known pro-inflammatory mediators

## Tissue metalloprotease inhibitor 2 [TIMP-2]
[3]
  TJ morphology (cingulin) in secreted molecules screen: improvement of TJ morphology in comparison to non-treated control

## Urocortin 1 (DNPSLSIDLTFHLLRTLLELARTQSQRERAEQNRIIFDSV; ends and bridges not checked; UniProt P55089 83-122, looked up) [UCN-1]
[3]
  TJ morphology (cingulin) in secreted molecules screen: changes in TJ morphology similar to previously observed upon treatment with known pro-inflammatory mediators

## Urocortin 3 (FTLSLDVPTNIMNLLFNIAKAKNLRAQAAANAHLMAQI; ends and bridges not checked; UniProt Q969E3 120-157, looked up) [UCN-3]
[3]
  TJ morphology (cingulin) in secreted molecules screen: changes in TJ morphology similar to previously observed upon treatment with known pro-inflammatory mediators

## Urotensin 2 (ETPDCFWKYCV; ends and bridges not checked; cysteine pairing not given here; UniProt O95399 114-124, looked up) [UTS-2]
[3]
  TJ morphology (cingulin) in secreted molecules screen: changes in TJ morphology similar to previously observed upon treatment with known pro-inflammatory mediators

B1: IL-22: human non-inflammatory cytokine (protein, UniProt Q9GZX6 34-179, looked up)
Interleukin-22: APISSHCRLDKSNFQQPYITNRTFMLAKEASLADNNTDVRLIGEKLFHGVSMSERCYLMKQVLNFTLEEVLFPQSDRFQPYMQEVVPFLARLSNRLSTCHIEGDDLHIQRNVQKLKDTVKKLGESGEIKAIGELDLLFMSLRNACI
[1]; 100 ng/ml IL-22 plus TNFa, IL1-b or LPS
  tight junction morphology on co-treatment with pro-inflammatory agents: blocked; also recorded: completely restored normal tight junction morphology

B2: Fibroblast growth factor 10 (protein, UniProt O15520 38-208, looked up)
Fibroblast growth factor 10: QALGQDMVSPEATNSSSSSFSSPSSAGRHVRSYNHLQGDVRWRKLFSFTKYFLKIEKNGKVSGTKKENCPYSILEITSVEIGVVAVKAINSNYYLAMNKKGKLYGSKEFNNDCKLKERIEENGYNTYASFNWQHNGRQMYVALNGKGAPRRGQKTRRKNTSAHFLPMVVHS
[3]
  TJ morphology (cingulin) in secreted molecules screen: changes in TJ morphology similar to previously observed upon treatment with known pro-inflammatory mediators

B3: Chemokine ligand 23 (protein, UniProt P55773 22-120, looked up)
C-C motif chemokine 23: RVTKDAETEFMMSKLPLENPVLLDRFHATSADCCISYTPRSIPCSLLESYFETNSECSKPGVIFLTKKGRRFCANPSDKQVQVCMRMLKLDTRIKTRKN
[3]
  TJ morphology (cingulin) in secreted molecules screen: changes in TJ morphology similar to previously observed upon treatment with known pro-inflammatory mediators

B4: Chemokine ligand 3 (protein, UniProt P10147 24-92, looked up)
C-C motif chemokine 3: SLAADTPTACCFSYTSRQIPQNFIADYFETSSQCSKPGVIFLTKRSRQVCADPSEEWVQKYVSDLELSA
[3]
  TJ morphology (cingulin) in secreted molecules screen: improvement of TJ morphology in comparison to non-treated control

B5: Bone morphogenetic protein 10 (protein, UniProt O95393 317-424, looked up)
Bone morphogenetic protein 10: NAKGNYCKRTPLYIDFKEIGWDSWIIAPPGYEAYECRGVCNYPLAEHLTPTKHAIIQALVHLKNSQKASKACCVPTKLEPISILYLDKGVVTYKFKYEGMAVSECGCR
[3]
  TJ morphology (cingulin) in secreted molecules screen: changes in TJ morphology similar to previously observed upon treatment with known pro-inflammatory mediators

B6: Fas ligand (protein, UniProt P48023 130-281, looked up)
Tumor necrosis factor ligand …: QIGHPSPPPEKKELRKVAHLTGKSNSRSMPLEWEDTYGIVLLSGVKYKKGGLVINETGLYFVYSKVYFRGQSCNNLPLSHKVYMRNSKYPQDLVMMEGKMMSYCTTGQMWARSSYLGAVFNLTSADHLYVNVSELSLVNFEESQTFFGLYKL
[3]
  TJ morphology (cingulin) in secreted molecules screen: improvement of TJ morphology in comparison to non-treated control
